Test results as given in US10508105B2, “Indazole compounds as mGluR4 allosteric potentiators, compositions, and methods of treating neurological dysfunction” (Vanderbilt University, priority 2017, dated 2019).
Where two headings read alike, the source gives them in different places.

Legend:
human mGlu4 = human mGlu4 (Homo sapiens (Human), UniProt Q14833); experiment: mGlu4 PAM assay in human mGlu4/Gqi5 cells with ~EC20 glutamate (Hamamatsu FDSS); type: cell-based; details: ~EC20 concentration of glutamate
human mGlu4, sequence (Q14833 33-912): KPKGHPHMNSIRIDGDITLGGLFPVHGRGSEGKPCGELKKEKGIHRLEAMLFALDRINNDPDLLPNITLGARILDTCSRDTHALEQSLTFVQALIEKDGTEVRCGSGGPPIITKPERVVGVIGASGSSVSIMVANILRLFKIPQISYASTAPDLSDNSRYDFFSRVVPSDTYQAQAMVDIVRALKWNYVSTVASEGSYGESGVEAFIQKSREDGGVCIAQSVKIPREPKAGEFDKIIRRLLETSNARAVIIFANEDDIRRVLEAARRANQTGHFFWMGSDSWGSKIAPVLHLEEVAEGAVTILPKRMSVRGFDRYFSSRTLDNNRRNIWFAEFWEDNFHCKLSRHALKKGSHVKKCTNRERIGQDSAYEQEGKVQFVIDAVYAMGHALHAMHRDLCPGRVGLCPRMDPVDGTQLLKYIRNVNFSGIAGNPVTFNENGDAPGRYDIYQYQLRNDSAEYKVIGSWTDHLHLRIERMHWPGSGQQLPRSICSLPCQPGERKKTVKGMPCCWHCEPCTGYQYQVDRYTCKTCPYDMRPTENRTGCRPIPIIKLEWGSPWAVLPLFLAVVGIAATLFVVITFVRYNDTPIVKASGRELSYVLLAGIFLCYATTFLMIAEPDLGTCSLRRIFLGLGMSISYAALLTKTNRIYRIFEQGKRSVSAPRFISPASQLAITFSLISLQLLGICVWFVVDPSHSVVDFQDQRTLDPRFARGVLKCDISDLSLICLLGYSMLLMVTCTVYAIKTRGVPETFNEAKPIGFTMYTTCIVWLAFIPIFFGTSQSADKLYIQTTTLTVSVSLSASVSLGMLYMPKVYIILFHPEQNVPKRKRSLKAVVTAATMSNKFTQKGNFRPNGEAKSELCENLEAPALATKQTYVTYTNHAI
Protocol: The disclosed compounds and compositions can be evaluated for their ability to act as a potentiatior of metabotropic glutamate receptor activity, in particular mGluR4 activity, by any suitable known methodology known in the art. For example, Chinese Hamster Ovary (CHO) cells transfected with human mGluR4 or HEK cells co-transfected with rat mGluR4 and the G-protein regulated Inwardly Rectifying Potassium channel (GIRK) were plated in clear bottom assay plates for assay in a Hamamatsu FDSS Fluorometric Plate Reader. The cells were loaded with either a Ca2+-sensitive fluorescent dye or the thallium responsive dye and the plates were washed and placed into a suitable kinetic plate reader. For human mGluR4 assays, a fluorescence baseline was established for 3-5 seconds, the disclosed compounds were then added to the cells, and the response in cells was measured. Approximately two and a half minutes later, a concentration of mGluR4 orthosteric agonist (e.g. glutamate, L-AP4, or L-SOP) eliciting approximately 20% (EC20) of the maximal agonist response was added to the cells, and the response was measured. Two minutes later, a concentration of mGluR4 agonist (e.g. glutamate, L-AP4, or L-SOP) eliciting 80% (EC80) of the maximal agonist response was added to the cells, and the response was measured. For rat mGluR4/GIRK experiments, a baseline was established for approximately five seconds, disclosed compounds were added, and either an EC20 or EC80 concentration of agonist was added approximately two and one half minutes later.
The above described assay operated in two modes. In the first mode, a range of concentrations of the disclosed compounds are added to cells, followed by a single fixed concentration of agonist. If the compound acts as a potentiatior, an EC50 value for potentiation and a maximum extent of potentiation by the compound at this concentration of agonist is determined by non-linear curve fitting. If the compound acts as an antagonist, an IC50 value is determined by non-linear curve fitting. In the second mode, several fixed concentrations of the disclosed compounds are added to various wells on a plate, followed by a range in concentrations of agonist for each concentration of disclosed compound. The EC50 values for the agonist at each concentration of compound are determined by non-linear curve fitting. A decrease in the EC50 value of the agonist with increasing concentrations of the sample compound (a leftward shift of the agonist concentration-response curve) is an indication of the degree of mGluR4 potentiation at a given concentration of the sample compound. A decrease in the maximal response of the agonist with increasing concentrations of the sample compounds, with or without a rightward shift in agonist potency, is an indication of the degree of antagonism at mGluR4. The second mode also indicates whether the sample compounds also affect the maximum response to mGluR4 to agonists.

Brain-Plasma Kp = type: in vivo; details: brain and plasma
rat CNS penetration (Kp) = type: in vivo; details: brain/plasma
[1] = system: haloperidol-induced catalepsy; experiment: haloperidol-induced catalepsy (standard PD model); type: in vivo, rodent; details: oral doses after haloperidol; relative to control mGlu4 PAM VU506
Source text: B) Efficacy of example 131 in the standard PD model of haloperidol-induced catalepsy, relative to a control mGlu4 PAM, VU506. […] Also see a) Engers, D. W.; Gogliotti, R. D.; Cheung, Y-Y.; Salovich, J. M.; Garcia-Barrantes, P. M.; Daniels, J. S.; Morrison, R.; Jones, C. K.; Blobaum, A. L.; Macor, J. E.; Bronson, J. J.; Conn, P. J.; Lindsley, C. W.; Niswender, C. M.; Hopkins, C. R. ‘Discovery, synthesis and pre-clinical characterization of N-(3-chloro-4-fluorophenyl)-1H-pyrazolo[4,3-b]pyridin-3-amine (VU0418506), a novel positive allosteric modulator of the metabotropic glutamate receptor 4 (mGlu4)’ ACS Chem. Neurosci. 2016, 7, 1192-1200; b) Niswender, C. M.; Jones, C. K.; Bubser, M.; Gray, A. T.; Blobaum, A. L.; Engers, D. W.; Altman, M. K.; O'Brien, D. E.; Rook, J. M.; Rodriguez, A. L.; Loch, M. T.; Daniels, J. S.; Lindsley, C. W.; Hopkins, C. R.; Conn, P. J. ‘Development of VU0418506, a positive allosteric modulator that differentiates metabotropic glutamate receptor 4 (mGlu4) homomeric receptors from mGlu2/4 heteromers’ ACS Chem. Neurosci., 2016, 7, 1201-1211.

EC50 (human mGlu4; read-out: hmGluR4 PAM EC50)	Kp (Brain-Plasma Kp; rat)	EC50 (human mGlu4; read-out: mGlu4 PAM EC50)	Structure (SMILES)	also measured
394 nM	1.51	–	Cn1nc(OCC2CCOCC2)c2ncc(NC(=O)c3ccccn3)cc21 [drawing 243]	–
50.1 nM	2.3	–	Cn1nc(OC[C@@H]2COCCO2)c2ccc(NC(=O)c3ncccc3N)cc21 [drawing 248]	–
119 nM	1.47	–	Cn1nc(OC[C@@H]2COCCO2)c2ccc(NC(=O)c3ccccn3)cc21	–
58.7 nM	1.88	–	Cn1nc(OC[C@H]2COCCO2)c2ccc(NC(=O)c3ncccc3N)cc21 [drawing 249]	–
201 nM	1.44	–	O=C(Nc1ccc2c(OC[C@@H]3CCOC3)n[nH]c2c1)c1ccccn1	–
120 nM	1.84	–	Cn1nc(OC[C@@H]2CCOC2)c2ncc(NC(=O)c3ncccc3N)cc21 [drawing 246]	–
–	–	707 nM	COc1nn(C)c2cc(Nc3n[nH]c4cccnc34)cc(Cl)c12 [Compound 26]	–
–	–	50.5 nM	Cn1nc(OCC2CCOCC2)c2ncc(NC(=O)c3ncccc3N)cc21 [Compound 58]	–
–	–	58.7 nM	Cn1nc(OC[C@H]2COCCO2)c2ccc(NC(=O)c3ncccc3N)cc21 [Compound 94]	–
–	–	176 nM	Cn1nc(OCC2COCCO2)c2ccc(Nc3n[nH]c4ncccc34)cc21 (stereo not shown) [Compound 112]	–

More lines, now with the values behind:

Structure (SMILES)	EC50 (human mGlu4; read-out: hmGluR4 PAM EC50)	Kp (Brain-Plasma Kp; rat)	EC50 (human mGlu4; read-out: mGlu4 PAM EC50)	also measured
Cn1nc(OCC2CCOC2)c2ncc(NC(=O)c3ncccc3N)cc21 (stereo not shown) [drawing 242]	86.8 nM	0.72	–	–
Cn1nc(OCC2CCOC2)c2ccc(NC(=O)c3ncccc3N)cc21 (stereo not shown) [drawing 241]	75.4 nM	3.09	–	–
Cn1nc(OC[C@H]2COCCO2)c2ccc(NC(=O)c3ncccc3N)cc21 [Compound 131]	–	–	50.1 nM	Kp (rat CNS penetration (Kp)): 1.6; reversal of haloperidol-induced catalepsy [1]: reverse catalepsy in a dose-dependent manner
Cn1nc(C(=O)NC2CC(F)(F)C2)c2ccc(NC(=O)c3ccc(F)cn3)cc21	324 nM	1.09	–	–
O=C(Nc1ccc2c(OCC3CCOC3)n[nH]c2c1)c1ccccn1 (stereo not shown)	360 nM	2.09	–	–
Cn1nc(C(=O)NC23CC(F)(C2)C3)c2ccc(NC(=O)c3ccccn3)cc21	569 nM	1.43	–	–
Cn1nc(OCC2CCOCC2)c2ccc(NC(=O)c3ccc(F)cn3)cc21	99.2 nM	–	–	Kp (Brain-Plasma Kp): 3.29
[2H]C([2H])([2H])n1nc(OCC2CCOC2)c2ccc(NC(=O)c3ccccn3)cc21 (stereo not shown) [Compound 110]	–	–	50.4 nM	–
Cn1nc(OC[C@@H]2CCOC2)c2ccc(NC(=O)c3ncccc3N)cc21 [drawing 244]	27.3 nM	2.47	–	–
Cn1nc(OCC2CCOCC2)c2ncc(NC(=O)c3ncccc3O)cc21 [Compound 59]	–	–	599 nM	–
Cn1nc(OCC2COC(C)(C)C2)c2ccc(NC(=O)c3ccccn3)cc21 (stereo not shown) [Compound 101]	–	–	75.6 nM	–
Cn1nc(OCC2CCCOC2)c2ccc(NC(=O)c3ccccn3)cc21 (stereo not shown) [Compound 85]	–	–	170 nM	–
Cn1nc(OCCN2CCOCC2)c2c(Cl)cc(Nc3n[nH]c4cccnc34)cc21 [Compound 24]	–	–	322 nM	–
Cn1nc(OCC2COC2)c2ccc(Nc3n[nH]c4cccnc34)cc21 [Compound 27]	–	–	96.4 nM	–
Cn1nc(O[C@H]2CCOC2)c2ccc(Nc3n[nH]c4ncccc34)cc21 [Compound 33]	–	–	575 nM	–
